Reference: US9963432B2, “Beta-amino-isoquinolinyl amide compounds” (Aerie Pharmaceuticals, Inc., priority 2016, dated 2018)
Like-named read-outs stand apart in the source and are kept apart here.

What was measured:
[1] = tested on: Immortalized Human Trabecular Meshwork cells (TM-1); test: PTM-HTM Assay: human trabecular meshwork cells, focal adhesions; format: cell-based; details: TM1, TM-1 cells, anti-paxillin stain, total area of focal adhesions, percent of control
Description: (§1) Porcine Trabecular Meshwork cells (PTM) were isolated from freshly obtained enucleated porcine eyes following a procedure by Rao et al.^1 Immortalized Human Trabecular Meshwork cells (TM-1) were obtained through a kind gift from Donna Peters in the Department of Ophthalmology and Visual Sciences at the University of Wisconsin. Cells were plated onto fibronectin coated glass-bottom 96-well plates and allowed to attach overnight. Media was removed and replaced with test compound in media with 1% fetal bovine serum and incubated for various times. After incubation, cells were formaldehyde fixed, triton solubilized, and stained. PTM cells were stained with Alexa Fluor®488 phalloidin (F-actin) and Hoechst 33342 (nuclei). TM-1 cells were stained with anti-paxillin followed by Alexa Fluor®488 goat-anti-mouse IgG (focal adhesions) and Hoechst 33342 (nuclei). All staining reagents were obtained through Invitrogen. Images were collected on an INCell 2200 imager with a 20× objective. The actin fiber length and total area of focal adhesions were analyzed using custom algorithms developed in the INCell Developer Toolbox, v1.9.3. Data collected were converted to percent of control (untreated cells). Curves were fit to data in GraphPad Prizm4 using sigmoidal dose-response and constraining top and bottom to 100% and 0%, respectively.

ROCK2 = ROCK2 (Homo sapiens, UniProt O75116); test: ROCK Kinase Assay (Kinase-Glo luminescent); format: biochemical
Description: All compounds were initially prepared as 10 mM stocks in anhydrous dimethylsulfoxide (DMSO). […] Test compounds were then serially diluted 1:3 in DMSO for a 10-point concentration response and further diluted in the assay buffer bringing all compound concentrations to 4× final concentration in 10% DMSO. […] A 10 μL aliquot of compound from each well of the intermediate dilution plate and 10 μL of a 4× stock solution containing ATP (5 μM) and acceptor substrate (20 μM RSK2 peptide […]) were added to all wells. […] Reactions were thoroughly mixed manually, covered and allowed to incubate at room temperature for 180 min. Protein kinase activity was quantitated using Promega's Kinase-Glo™ luminescent Kinase Assay Kit according to the manufacturer's directions. ATP concentrations remaining in Test wells following the termination of the enzymatic reaction were compared against control wells containing equivalent amounts of DMSO containing no inhibitor (CTRL). […] Percent of Control (POC) values were determined for each concentration of compound tested according to the equation: POC=((Test well value−BKG)/(CTRL−BKG))*100
IC50 values were calculated using the following 4-parameter logistic curve-fitting algorithm: f(x)=(A+((B−A)/(1+((x/C)^D))))
IC50 values were converted to Ki values using the Cheng-Prusoff Equation: Ki=IC50/(1+([ATP]/Km ATP])).

[2] = tested on: Porcine Trabecular Meshwork cells (PTM); test: PTM-HTM Assay: porcine trabecular meshwork cells, actin fibers; format: cell-based; details: Sus scrofa, phalloidin stain, actin fiber length, percent of control
Description: as §1

[3] = IC50 converted to Ki by Cheng-Prusoff, ATP 5 μM, ROCK2 1 nM, 180 min, read-out: ROCK2 Ki

Sequence of ROCK2 (O75116 whole entry, species assumed): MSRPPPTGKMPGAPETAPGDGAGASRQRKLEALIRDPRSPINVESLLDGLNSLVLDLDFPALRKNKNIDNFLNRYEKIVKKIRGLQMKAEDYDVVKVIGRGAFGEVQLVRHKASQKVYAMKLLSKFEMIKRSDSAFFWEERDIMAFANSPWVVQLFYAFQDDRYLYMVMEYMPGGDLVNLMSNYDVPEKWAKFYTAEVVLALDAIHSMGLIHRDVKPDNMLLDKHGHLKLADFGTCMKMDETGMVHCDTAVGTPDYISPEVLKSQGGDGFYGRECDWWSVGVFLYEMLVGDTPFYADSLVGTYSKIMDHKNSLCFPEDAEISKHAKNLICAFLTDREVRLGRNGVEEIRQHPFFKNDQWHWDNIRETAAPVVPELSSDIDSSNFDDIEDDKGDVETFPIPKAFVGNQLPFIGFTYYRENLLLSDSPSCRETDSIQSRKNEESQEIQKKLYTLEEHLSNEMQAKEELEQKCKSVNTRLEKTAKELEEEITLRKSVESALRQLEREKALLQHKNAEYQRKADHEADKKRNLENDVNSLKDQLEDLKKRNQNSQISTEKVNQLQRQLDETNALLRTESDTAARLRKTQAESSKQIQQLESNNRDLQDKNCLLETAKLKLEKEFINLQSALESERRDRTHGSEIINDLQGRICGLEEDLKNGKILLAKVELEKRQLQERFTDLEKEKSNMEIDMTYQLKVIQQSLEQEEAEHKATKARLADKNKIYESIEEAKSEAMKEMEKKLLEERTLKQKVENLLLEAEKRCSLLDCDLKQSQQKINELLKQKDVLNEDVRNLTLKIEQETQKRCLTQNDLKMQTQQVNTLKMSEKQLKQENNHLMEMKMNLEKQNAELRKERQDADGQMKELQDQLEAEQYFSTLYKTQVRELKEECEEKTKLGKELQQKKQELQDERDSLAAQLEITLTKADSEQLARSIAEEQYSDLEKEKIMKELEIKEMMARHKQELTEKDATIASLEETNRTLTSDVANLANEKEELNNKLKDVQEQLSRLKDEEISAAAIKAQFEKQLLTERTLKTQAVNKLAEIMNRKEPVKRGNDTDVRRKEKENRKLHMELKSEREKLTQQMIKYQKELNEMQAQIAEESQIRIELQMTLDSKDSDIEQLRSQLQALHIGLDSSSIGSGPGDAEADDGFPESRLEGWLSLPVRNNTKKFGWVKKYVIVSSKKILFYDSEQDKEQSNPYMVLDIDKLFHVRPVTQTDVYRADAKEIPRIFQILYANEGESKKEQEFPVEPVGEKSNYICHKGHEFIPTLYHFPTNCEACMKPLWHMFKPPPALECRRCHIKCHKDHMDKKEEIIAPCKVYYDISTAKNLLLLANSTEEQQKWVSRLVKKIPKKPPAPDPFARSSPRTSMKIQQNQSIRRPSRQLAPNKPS

Structure (SMILES)	IC50 [1]	Ki (ROCK2; [3])	IC50 [2]	Ki (ROCK2)
NCC(C(=O)Nc1ccc2cnccc2c1)c1cccc(O)c1 (centres unmarked) [Compound 16]	1720 nM	1.3 nM	459 nM	
NCC(C(=O)Nc1ccc2cnccc2c1)c1ccc(O)c(O)c1 (centres unmarked) [Compound 18]	11000 nM	5.5 nM	5150 nM	
Cc1cccc(C(CN)C(=O)Nc2ccc3cnccc3c2)c1 (centres unmarked) [Compound 14]	324 nM	3.3 nM	511 nM	
NC[C@H](C(=O)Nc1ccc2cnccc2c1)c1ccccc1 [4 (R)]		16 nM		
COc1ccc(C(CN)C(=O)Nc2ccc3cnccc3c2)cc1 (centres unmarked) [Compound 20]	111 nM	1.3 nM	670 nM	
NCC(C(=O)Nc1ccc2cnccc2c1)c1ccc(Cl)cc1Cl (centres unmarked) [Compound 12]	208 nM	0.8 nM	214 nM	
Cc1ccccc1C(CN)C(=O)Nc1ccc2cnccc2c1 (centres unmarked) [Compound 13]	90 nM	1 nM	200 nM	
NCC(C(=O)Nc1ccc2cnccc2c1)c1cccc(F)c1 (centres unmarked) [Compound 7]	201 nM	1 nM	298 nM	
NCC(C(=O)Nc1ccc2c(O)nccc2c1)c1ccccc1 (centres unmarked) [Compound 5]	266 nM	2.2 nM	45 nM	
Cc1ccc(C(CN)C(=O)Nc2ccc3cnccc3c2)cc1 (centres unmarked) [Compound 15]	39 nM	0.4 nM	84 nM	
NCC(C(=O)Nc1ccc2cnccc2c1)c1ccc(F)cc1 (centres unmarked) [Compound 8]	102 nM	1 nM	175 nM	
NCC(C(=O)Nc1ccc2cnccc2c1)c1ccc(Cl)cc1 (centres unmarked) [Compound 11]	64 nM	0.4 nM	129 nM	
NCC(C(=O)Nc1ccc2cnccc2c1)c1ccc(CO)cc1 (centres unmarked) [Compound 24]				0.7 nM
NCC(C(=O)Nc1ccc2cnccc2c1)c1cccc(CO)c1 (centres unmarked) [Compound 23]	248 nM	3 nM	1380 nM	
NCC(C(=O)Nc1ccc2cnccc2c1)c1ccc(O)cc1 (centres unmarked) [Compound 17]	193 nM	0.6 nM	1020 nM	
NCC(C(=O)Nc1ccc2cnccc2c1)c1ccccc1 (centres unmarked) [Compound 2]		0.8 nM		
NCC(C(=O)Nc1ccc2cnccc2c1)c1cccc(Cl)c1 (centres unmarked) [Compound 10]	383 nM	0.9 nM	455 nM	
NCC(C(=O)Nc1ccc2cnccc2c1)c1ccccc1F (centres unmarked) [Compound 6]	139 nM	1 nM	260 nM	
COc1cccc(C(CN)C(=O)Nc2ccc3cnccc3c2)c1 (centres unmarked) [Compound 19]	214 nM	2 nM	448 nM	
NCC(C(=O)Nc1ccc2cnccc2c1)c1ccccc1Cl (centres unmarked) [Compound 9]	192 nM	1.3 nM	245 nM	
NCC(C(=O)Nc1ccc2cnccc2c1)c1cccc(C(F)(F)F)c1 (centres unmarked) [Compound 21]	475 nM	2.7 nM	596 nM	
NC[C@@H](C(=O)Nc1ccc2cnccc2c1)c1ccccc1 [3 (S)]	41 nM	0.4 nM		
NCC(C(=O)Nc1ccc2cnccc2c1)c1ccc(C(F)(F)F)cc1 (centres unmarked) [Compound 22]	493 nM	1.8 nM	152 nM	
